Laboratory results published in PMC9853328, “Potent Platinum(IV) Prodrugs That Incorporate a Biotin Moiety to Selectively Target Cancer Cells” (Pharmaceutics, 2022).
Values joined by “and” are separate entries in the source; they are usually repeats but may differ in a detail not shown here. Equal entries are not always repeated.

What was measured:
[1] = test system: MCF-7 breast cancer cells; assay: MTT in vitro cytotoxicity assay, MCF-7; type: cell-based; conditions: MTT, 72 h drug exposure, n = 3; read-out: GI50 ± SEM, MCF-7
[2] = test system: A2780 ovarian cancer cells; assay: MTT in vitro cytotoxicity assay, A2780; type: cell-based; conditions: 72 h drug exposure, n = 3, read-out: GI50 ± SEM, A2780
Outline: (§1)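 Cells seeded at 2500–4000 per well, treated 24 h later in log phase, and exposed to compound for 72 h at 37 °C, 5% CO2 in DMEM with 10% FBS. MTT read at 540 nm; GI50 from an eight-point curve relative to day-0 optical density, mean ± SEM of three experiments.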

H460 lung cancer cells = assay: MTT in vitro cytotoxicity assay, H460; type: cell-based; conditions: 72 h drug exposure, n = 3, read-out: GI50 ± SEM, H460
Outline: as §1

[3] = test system: BE2-C neuroblastoma cells; assay: MTT in vitro cytotoxicity assay, BE2-C; type: cell-based; conditions: 72 h drug exposure, n = 3, read-out: GI50 ± SEM, BE2-C
Outline: as §1

[4] = test system: MIA pancreas cancer cells; assay: MTT in vitro cytotoxicity assay, MIA; type: cell-based; conditions: 72 h drug exposure, n = 3, read-out: GI50 ± SEM, MIA
Outline: as §1

[5] = test system: non-cancerous MCF10A breast cell line; assay: MTT in vitro cytotoxicity assay, MCF10A; type: cell-based; conditions: 72 h drug exposure, n = 3, read-out: GI50 ± SEM, MCF10A
Outline: as §1

[6] = test system: cisplatin-resistant ADDP ovarian (subclone of A2780) cancer cells; assay: MTT in vitro cytotoxicity assay, ADDP; type: cell-based; conditions: 72 h drug exposure, n = 3, read-out: GI50 ± SEM, ADDP
Outline: as §1

[7] = test system: ADDP (subclone of A2780) versus A2780 ovarian cancer cell lines; assay: Resistance factor, GI50 in ADDP/GI50 in A2780; type: cell-based
[8] = Reduction study with ascorbic acid via 1H NMR; type: physicochemical; conditions: 5 mM complex in D2O with 10X PBS, ascorbic acid 5 mM, 37 °C, four experiments
Protocol: To confirm that the reduction of these prodrugs occurs and the axially bound biotin ligands are released from the cytotoxic platinum(II) core, reduction studies were undertaken using ^1H NMR experiments for 3. The complex was prepared in 5 mM D2O with 10X PBS. Ascorbic acid (5 mM) was added, and the reduction was monitored at 37 °C by ^1H NMR experiments. Over time, the resonances corresponding to the platinum(IV) species decreased, while new resonances corresponding to the platinum(II) species increased (Figure 7).

[9] = test system: MCF10A (healthy breast) cells; assay: Cellular platinum uptake by ICP-MS, MCF10A; type: cell-based; conditions: 1.0 and 0.1 µM, 4 h, among complexes 1–4
Protocol: Cellular uptake studies were carried out in MCF-7 (breast cancer) and MCF10A (healthy breast) cell lines. Reported in Table S2 are the numbers of cells per well that were seeded onto 12-well plates for each replicate and cell line. After incubating overnight at 37 °C, the cell culture medium was replaced with fresh media containing the test compounds at concentrations of 1.0 and 0.1 µM. After incubating for 4 h, the medium was removed, the cells were washed with PBS twice, and then incubated with trypsin solution until the cells dissociated from the plate. The harvested cells were then placed into an Eppendorf tube and PBS was added to a volume of 1 mL. Cell numbers were determined using trypan blue staining. Cell pellets were obtained after centrifugation and the cells were dispersed in 50 µL of MilliQ™ water and stored immediately at −20 °C until platinum analysis was conducted. These experiments were repeated in triplicate on three separate occasions.
Sixty-nine percent HNO3 (50 µL) was added to each sample and digested at 80 °C for 1.5 h, before being taken up to 1 mL with H2O. The platinum analysis was conducted using a PerkinElmer (Melbourne, Australia) NexION™ 300X inductively coupled plasma mass spectrometer (ICP-MS). […] The calibration was linear over the working range (R^2 > 0.9999) and the most abundant platinum isotope (m/z = 195) was monitored. […]

## COc1cc[n+]2c3c1ccc1c(OC)cc[n+](c13)[Pt-2]21([OH])([O]C(=O)CCCC[C@@H]2SC[C@@H]3NC(=O)N[C@@H]32)[NH2+][C@H]2CCCC[C@@H]2[NH2+]1.O=[N+]([O-])[O-].O=[N+]([O-])[O-] [Complex 3, [Pt(4,7-dimethoxy-1,10-phenanthroline)(1S,2S-diaminocyclohexane)(biotin)(hydroxido)](NO3)2]
[1]
  GI50: 0.099 ± 0.041 µM
[2]
  GI50: 0.37 ± 0.03 µM
H460 lung cancer cells
  GI50: 0.27 ± 0.03 µM
[3]
  GI50: 2 ± 0.07 µM
[4]
  GI50: 0.18 ± 0.01 µM
[5]
  GI50: 0.3 ± 0.08 µM
[6]
  GI50: 0.17 ± 0.02 µM
[7]
  Resistance factor (RF): 0.459 and 0.46
[8]
  reduction half-life: ~ 30 ± 7 min and ~ 30 min
[9]
  cellular platinum uptake in MCF10A (rank): lowest uptake levels
